Where two headings read alike, the source gives them in different places.
Assays:
[1] = 125I-Bgt displacement assay; cited from earlier work
Ls-AChBP = Ls-AChBP (Lymnaea stagnalis, UniProt P58154); details: cited from earlier work
Ac-AChBP = biological target: T1, Ac-AChBP (Aplysia californica, UniProt Q8WSF8); assay: [3H] epibatidine competition scintillation proximity assay, Ac-AChBP; type: binding
T1 sequence (Q8WSF8 18-236 limits assumed): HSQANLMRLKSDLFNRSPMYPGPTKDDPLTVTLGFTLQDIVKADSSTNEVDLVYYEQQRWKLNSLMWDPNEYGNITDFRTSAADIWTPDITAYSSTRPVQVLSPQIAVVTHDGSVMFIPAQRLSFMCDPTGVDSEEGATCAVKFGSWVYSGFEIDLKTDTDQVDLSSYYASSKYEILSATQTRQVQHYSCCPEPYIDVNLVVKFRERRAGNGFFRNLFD

α7nAChR [2] = biological target: T2, α7nAChR (Homo sapiens, UniProt P36544); assay: LGIC-CNiFER FRET calcium sensor assay in HEK cells, α7nAChR; type: cell-based
[3] = system: AChBPs (Ls, Ac, and AcY55W); assay: [3H] epibatidine competition SPA, the three AChBPs together; type: binding; details: 10 μM of each compound
AcY55W-AChBP = AcY55W-AChBP (Aplysia californica, UniProt Q8WSF8, Y72W); assay: [3H] epibatidine competition scintillation proximity assay, AcY55W-AChBP; type: binding
α7nAChR [4] = biological target: T2, α7nAChR; type: cell-based
5-HT3A = biological target: T3, 5-HT3A (Homo sapiens, UniProt P46098); assay: LGIC-CNiFER FRET calcium sensor assay in HEK cells, 5-HT3A; type: cell-based; details: control at 0.1 μM
T3 sequence (P46098 24-478): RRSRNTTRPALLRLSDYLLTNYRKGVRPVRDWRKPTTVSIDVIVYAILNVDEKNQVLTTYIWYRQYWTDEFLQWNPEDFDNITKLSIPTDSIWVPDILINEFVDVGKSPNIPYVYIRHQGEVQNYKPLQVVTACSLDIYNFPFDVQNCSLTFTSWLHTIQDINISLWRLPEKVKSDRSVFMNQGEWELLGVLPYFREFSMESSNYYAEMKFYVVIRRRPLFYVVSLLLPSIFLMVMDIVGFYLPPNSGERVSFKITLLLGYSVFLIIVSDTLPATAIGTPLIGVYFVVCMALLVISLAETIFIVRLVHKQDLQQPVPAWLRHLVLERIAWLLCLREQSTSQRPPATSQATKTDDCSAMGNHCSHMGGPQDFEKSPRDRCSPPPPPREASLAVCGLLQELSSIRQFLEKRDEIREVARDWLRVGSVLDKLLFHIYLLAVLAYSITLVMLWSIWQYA

α1nAChR = α1nAChR (Homo sapiens, UniProt P02708+Q07001); assay: LGIC-CNiFER membrane potential dye assay in HEK cells, α1nAChR; type: cell-based; details: 0.1 µM
Sequence of α1nAChR (P02708 21-457): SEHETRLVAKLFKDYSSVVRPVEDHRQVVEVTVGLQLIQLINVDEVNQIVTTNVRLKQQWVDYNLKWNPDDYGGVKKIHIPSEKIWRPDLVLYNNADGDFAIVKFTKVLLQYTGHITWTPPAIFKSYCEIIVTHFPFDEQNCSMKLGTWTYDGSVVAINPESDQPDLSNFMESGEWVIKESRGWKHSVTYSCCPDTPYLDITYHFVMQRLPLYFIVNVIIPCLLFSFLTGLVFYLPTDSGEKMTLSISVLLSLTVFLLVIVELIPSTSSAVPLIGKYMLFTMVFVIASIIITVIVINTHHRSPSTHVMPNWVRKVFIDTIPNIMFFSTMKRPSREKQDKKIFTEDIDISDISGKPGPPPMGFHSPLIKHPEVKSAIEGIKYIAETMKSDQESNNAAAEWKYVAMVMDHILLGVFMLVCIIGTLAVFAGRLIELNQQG
Sequence of α1nAChR (P11230 24-501 partner): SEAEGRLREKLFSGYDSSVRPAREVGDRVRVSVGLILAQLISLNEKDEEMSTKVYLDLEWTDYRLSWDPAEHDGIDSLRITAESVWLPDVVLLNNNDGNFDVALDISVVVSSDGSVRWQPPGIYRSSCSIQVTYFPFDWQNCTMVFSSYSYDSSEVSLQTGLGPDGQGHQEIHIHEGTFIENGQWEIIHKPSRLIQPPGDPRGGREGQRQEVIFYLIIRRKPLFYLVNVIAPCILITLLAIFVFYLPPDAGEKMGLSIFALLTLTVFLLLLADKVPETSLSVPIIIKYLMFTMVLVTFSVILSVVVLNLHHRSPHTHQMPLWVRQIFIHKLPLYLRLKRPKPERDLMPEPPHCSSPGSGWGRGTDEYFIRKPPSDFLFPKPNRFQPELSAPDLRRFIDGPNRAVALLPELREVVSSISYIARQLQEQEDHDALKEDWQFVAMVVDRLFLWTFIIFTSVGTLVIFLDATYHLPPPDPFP
Sequence of α1nAChR (Q07001 22-517): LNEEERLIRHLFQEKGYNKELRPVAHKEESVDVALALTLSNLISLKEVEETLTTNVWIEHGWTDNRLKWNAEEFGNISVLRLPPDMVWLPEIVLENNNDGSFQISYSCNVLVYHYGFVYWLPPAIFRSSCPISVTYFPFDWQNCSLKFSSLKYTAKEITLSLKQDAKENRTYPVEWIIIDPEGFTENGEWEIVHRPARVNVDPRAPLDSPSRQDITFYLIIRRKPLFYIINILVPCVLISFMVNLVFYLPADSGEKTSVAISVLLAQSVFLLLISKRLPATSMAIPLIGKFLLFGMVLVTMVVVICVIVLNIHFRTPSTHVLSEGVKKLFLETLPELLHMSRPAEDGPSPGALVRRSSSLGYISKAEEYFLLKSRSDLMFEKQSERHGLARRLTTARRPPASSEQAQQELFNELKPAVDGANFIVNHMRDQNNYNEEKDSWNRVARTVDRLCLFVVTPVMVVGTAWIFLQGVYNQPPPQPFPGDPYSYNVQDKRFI

T2 sequence (P36544 23-502): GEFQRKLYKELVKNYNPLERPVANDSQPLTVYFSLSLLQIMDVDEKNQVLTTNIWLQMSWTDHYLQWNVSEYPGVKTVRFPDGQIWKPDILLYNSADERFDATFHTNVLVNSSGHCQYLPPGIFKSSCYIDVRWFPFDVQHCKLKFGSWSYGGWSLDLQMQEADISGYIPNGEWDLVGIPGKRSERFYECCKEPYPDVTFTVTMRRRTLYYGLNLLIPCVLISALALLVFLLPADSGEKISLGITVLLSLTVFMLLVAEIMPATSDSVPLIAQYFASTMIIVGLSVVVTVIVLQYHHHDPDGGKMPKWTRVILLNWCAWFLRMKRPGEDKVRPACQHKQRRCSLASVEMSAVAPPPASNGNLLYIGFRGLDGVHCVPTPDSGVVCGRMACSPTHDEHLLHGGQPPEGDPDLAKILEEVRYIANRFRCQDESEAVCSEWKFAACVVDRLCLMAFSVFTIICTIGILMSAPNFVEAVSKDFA
Sequence of Ls-AChBP (P58154 20-229 limits assumed): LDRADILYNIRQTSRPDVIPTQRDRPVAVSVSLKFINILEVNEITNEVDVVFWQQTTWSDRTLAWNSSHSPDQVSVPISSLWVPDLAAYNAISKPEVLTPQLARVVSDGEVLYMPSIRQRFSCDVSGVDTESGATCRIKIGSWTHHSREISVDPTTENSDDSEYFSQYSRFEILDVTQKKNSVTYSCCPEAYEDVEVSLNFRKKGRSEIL
Sequence of AcY55W-AChBP (Q8WSF8 18-236 Y72W limits assumed): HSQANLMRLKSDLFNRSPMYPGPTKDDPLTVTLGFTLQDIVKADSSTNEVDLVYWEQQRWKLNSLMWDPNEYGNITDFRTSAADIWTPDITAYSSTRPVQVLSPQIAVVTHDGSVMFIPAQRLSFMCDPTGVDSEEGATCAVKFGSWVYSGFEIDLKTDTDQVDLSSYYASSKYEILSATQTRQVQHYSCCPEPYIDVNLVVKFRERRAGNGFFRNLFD

Molecule: CC(=O)OCC[N+](C)(C)C [ACh, acetylcholine]
- pKd [1]: 5.5
- Kd (Ls-AChBP): 823 nM

Molecule: C[N+]1(C)[C@@H]2CC[C@H]1C[C@@H](OC(=O)C(CO)c1ccccc1)C2 (stereo partly drawn) [Compound 10]
- Kd (Ac-AChBP): 882 ± 117 nM
- selectivity of antagonism among LGIC-CNiFERs (α7nAChR [2]): nonselective antagonists
- interference with the binding of [3H] epibatidine to BPs (screening) [3]: significant interference
- Kd (AcY55W-AChBP): 2010 ± 137 nM

Molecule: CCN1C[C@]2(COC(=O)c3ccccc3N3C(=O)C[C@H](C)C3=O)CC[C@H](OC)[C@@]34[C@@H]5C[C@H]6[C@H](OC)[C@@H]5[C@](O)(C[C@@H]6OC)[C@@](O)([C@@H](OC)[C@H]23)[C@@H]14 [MLA, methyllycaconitine]
- percent inhibition, α7nAChR (α7nAChR [2]; 1 µM): 79 ± 6.4%
- inhibition of current response elicited by 100 μM ACh (α7nAChR [4]): completely inhibited

Molecule: CN1[C@@H]2CC[C@H]1C[C@@H](OC(=O)c1c[nH]c3ccccc13)C2 [Tropocitron]
- percent inhibition, 5-HT3A (5-HT3A): 96 ± 0.6%

Molecule: C[N+](C)(C)CCOC(N)=O [carbamylcholine]
- Kd (Ls-AChBP; isothermal titration calorimetry using Ls-AChBP): 7580 nM

Molecule: CN1CCC[C@H]1c1cccnc1 [nicotine]
- pKd [1]: 7.2

Molecule: α-Bungarotoxin
- percent inhibition, α1nAChR (α1nAChR): 94 ± 0.8%

— paper PMC4762448 (Journal of biomolecular screening, 2011)
